Experimental data taken from ChEMBL document CHEMBL1130682, “A concise synthesis and in vitro cytotoxicity of new labdane diterpenes” (Bioorg Med Chem Lett, 1998).
≈ marks a conversion by molar mass, not a printed value.

What was measured:
Format in all cases: functional, cell-based
[1] = system: B16; assay: In vitro cytotoxicity of compound was measured on murine melanoma (B16) cells.; conditions: Mus musculus
[2] = system: P388; assay: In vitro cytotoxicity of compound was measured on murine lymphocytic leukemia (P-388) cells.; conditions: Mus musculus
[3] = system: SNU1; assay: In vitro cytotoxicity of compound was measured on human gastric adenocarcinoma (SNU-1) cells.

Compound | IC50 [1] | IC50 [2] | IC50 [3]
C=C1CC[C@H]2C(C)(C)CCC[C@]2(C)[C@H]1CC(O)c1ccoc1 (some centres not stated) | 47.2 µg/mL (≈ 156 µM) | 3.6 µg/mL (≈ 11.9 µM) | 3.9 µg/mL (≈ 12.9 µM)
C=C1CC[C@H]2C(C)(C)CCC[C@]2(C)[C@H]1C/C=C(\CO)CCO | 28.9 µg/mL (≈ 94.3 µM) | 6.3 µg/mL (≈ 20.6 µM) | 8.6 µg/mL (≈ 28.1 µM)
C=C1CC[C@H]2C(C)(C)CCC[C@]2(C)[C@H]1C/C=C1/CCOC1=O | 7.5 µg/mL (≈ 24.8 µM) | 6.7 µg/mL (≈ 22.2 µM) | 19.2 µg/mL (≈ 63.5 µM)
C=C1CC[C@H]2C(C)(C)CCC[C@]2(C)[C@H]1C/C=C(/C=O)CC=O | 41.2 µg/mL (≈ 136 µM) | 4.1 µg/mL (≈ 13.6 µM) | 12 µg/mL (≈ 39.7 µM)
CC(=O)O[C@]1(C)CC[C@H]2C(C)(C)CCC[C@]2(C)[C@H]1CC=O | 31.9 µg/mL (≈ 108 µM) | 6.9 µg/mL (≈ 23.4 µM) | 4.8 µg/mL (≈ 16.3 µM)
CC1(C)CCC[C@@]2(C)[C@H]1CCC1(CO1)[C@@H]2C/C=C1/CCOC1=O (some centres not stated) | 84.5 µg/mL (≈ 265 µM) | 12.3 µg/mL (≈ 38.6 µM) | 15.7 µg/mL (≈ 49.3 µM)
CC(=O)O[C@]1(C)CC[C@H]2C(C)(C)CCC[C@]2(C)[C@H]1C/C=C1/CCOC1=O | 11.3 µg/mL (≈ 31.2 µM) | 7.8 µg/mL (≈ 21.5 µM) | 12.3 µg/mL (≈ 33.9 µM)
C=C1CC[C@H]2C(C)(C)CCC[C@]2(C)[C@H]1CC=O | 30.8 µg/mL (≈ 131 µM) | 0.16 µg/mL (≈ 0.683 µM) | 3.9 µg/mL (≈ 16.6 µM)
C=C1[C@H](O)C[C@H]2C(C)(C)CCC[C@]2(C)[C@H]1/C=C/c1ccoc1 | 27.3 µg/mL (≈ 90.9 µM) | 10.3 µg/mL (≈ 34.3 µM) | 4.8 µg/mL (≈ 16 µM)
C=C1CC[C@H]2C(C)(C)CCC[C@]2(C)[C@H]1/C=C/c1ccoc1 [CORONARIN E] | 18.8 µg/mL (≈ 66.1 µM) | 10 µg/mL (≈ 35.2 µM) | 8 µg/mL (≈ 28.1 µM)
COc1cccc2c1C(=O)c1c(O)c3c(c(O)c1C2=O)C[C@@](O)(C(=O)CO)C[C@@H]3O[C@H]1C[C@H](N)[C@H](O)[C@H](C)O1 [DOXORUBICIN] |  | 0.09 µg/mL (≈ 0.166 µM) | 2.15 µg/mL (≈ 3.96 µM)
CO[C@@]12[C@H](COC(N)=O)C3=C(C(=O)C(C)=C(N)C3=O)N1C[C@@H]1N[C@@H]12 [MITOMYCIN] |  | 0.06 µg/mL (≈ 0.179 µM) | 2.32 µg/mL (≈ 6.94 µM)
C=C[C@](C)(O)CC[C@@H]1[C@@]2(C)CCCC(C)(C)[C@@H]2CC[C@@]1(C)O [SCLAREOL] | 28 µg/mL (≈ 90.8 µM) | 10.1 µg/mL (≈ 32.7 µM) | 11.9 µg/mL (≈ 38.6 µM)
